Values of other authors, collected in patent US12383619B2, “Use of glutamate modulating agents with immunotherapies to treat cancer” (Biohaven Therapeutics Ltd., priority 2016, dated 2025).
Read-outs that look alike come from different tables or passages of the source.

System: advanced NSCLC
Details: 75 mg/m^2 every 3 weeks, cited from earlier work
[1] = TPS≥50% (section head prints 'TPS')

CC(=O)O[C@@]12CO[C@@H]1C[C@H](O)[C@@]1(C)C(=O)[C@H](O)C3=C(C)[C@@H](OC(=O)[C@H](O)[C@@H](NC(=O)OC(C)(C)C)c4ccccc4)C[C@@](O)([C@@H](OC(=O)c4ccccc4)[C@H]21)C3(C)C [Docetaxel, docetaxel]
PFS: Number of patients with event (TPS 1% (entire population), BICR, RECIST 1.1): 257
OS: % of patients with event (TPS 1% (entire population)): (56%)
OS: Number of patients with event (TPS 1% (entire population)): 193
Overall response rate: ORR % (TPS 1% (entire population)): 9%
PFS: % of patients with event (TPS 1% (entire population)): (75%)
PFS: Median in months (TPS 1% (entire population)): 4.0 months
Response duration: % ongoing (TPS 1% (entire population)): 34%
Response duration: Median in months (TPS 1% (entire population)): 6.2 months
Overall response rate: ORR % (TPS≥50% (section head prints 'TPS'), all partial responses): 8%
OS: % of patients with event [1]: (57%)
OS: Median in months [1]: 8.2 months
OS: Number of patients with event [1]: 86
PFS: % of patients with event [1]: (78%)
PFS: Median in months [1]: 4.1 months
PFS: Number of patients with event [1]: 118
Response duration: % ongoing [1]: 33%
Response duration: Median in months [1]: 8.1 months
